According to US6737383B1, “Herbicidal oxadiazolidines” (priority 1999, dated 2004):

What was measured:
bedstraw = test: Test B pre/postemergence bedstraw; assay type: in vivo, Galium aparine
Outline: (§1)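 Test chemicals in a non-phytotoxic solvent mixture with surfactant were sprayed preemergence onto planted seeds and postemergence onto plants 2 to 18 cm tall (1- to 4-leaf stage). After twelve to sixteen days in a greenhouse, injury was visually rated against untreated controls from 0 (no effect) to 10 (complete control).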

blackgrass = test: Test B pre/postemergence blackgrass; assay type: in vivo, Alopecurus myosuroides
Outline: as §1

surinam grass = test: Test B pre/postemergence surinam grass; assay type: in vivo, Brachiaria decumbens
Outline: as §1

cocklebur = test: Test B pre/postemergence cocklebur; assay type: in vivo, Xanthium strumarium
Outline: as §1

corn = test: Test B pre/postemergence corn; assay type: in vivo, Zea mays
Outline: as §1

crabgrass = test: Test B pre/postemergence crabgrass; assay type: in vivo, Digitaria sanguinalis
Outline: as §1

giant foxtail = test: Test B pre/postemergence giant foxtail; assay type: in vivo, Setaria faberii
Outline: as §1

morningglory = test: Test B pre/postemergence morningglory; assay type: in vivo, Ipomoea hederacea
Outline: as §1

pigweed = test: Test B pre/postemergence pigweed; assay type: in vivo, Amaranthus retroflexus
Outline: as §1

rape = test: Test B pre/postemergence rape; assay type: in vivo, Brassica napus
Outline: as §1

soybean = test: Test B pre/postemergence soybean; assay type: in vivo, Glycine max
Outline: as §1

sugar beet = test: Test B pre/postemergence sugar beet; assay type: in vivo, Beta vulgaris
Outline: as §1

velvetleaf = test: Test B pre/postemergence velvetleaf; assay type: in vivo, Abutilon theophrasti
Outline: as §1

wheat = test: Test B pre/postemergence wheat; assay type: in vivo, Triticum aestivum
Outline: as §1

wild oat = test: Test B pre/postemergence wild oat; assay type: in vivo, Avena fatua
Outline: as §1

purple nutsedge = test: Test B pre/postemergence purple nutsedge; assay type: in vivo, Cyperus rotundus
Outline: as §1

[1] = Preemergence, Rate 62 g/ha, scale 0 to 10 (0 no effect, 10 complete control)
[2] = Preemergence, Rate 125 g/ha, scale 0 to 10 (0 no effect, 10 complete control)
[3] = Preemergence, Rate 250 g/ha, scale of 0 to 10 where 0 is no effect and 10 is complete control
[4] = Preemergence, Rate 500 g/ha, scale 0 to 10 (0 no effect, 10 complete control)
[5] = Rate 500 g/ha, Postemergence, scale 0 to 10, 0 no effect, 10 complete control
[6] = Postemergence, Rate 125 g/ha, scale of 0 to 10 where 0 is no effect and 10 is complete control
[7] = Postemergence, Rate 250 g/ha, scale 0 to 10, 0 no effect, 10 complete control
[8] = Rate 62 g/ha, Postemergence, scale of 0 to 10 where 0 is no effect and 10 is complete control
[9] = Rate 250 g/ha, Postemergence, scale 0 to 10, 0 is no effect, 10 is complete control
[10] = Preemergence, Rate 125 g/ha, 0 is no effect, 10 is complete control
[11] = Preemergence, Rate 125 g/ha, scale of 0 to 10 where 0 is no effect and 10 is complete control
[12] = Preemergence, Rate 250 g/ha, scale 0 (no effect) to 10 (complete control)
[13] = Rate 62 g/ha, Preemergence, scale 0 to 10
[14] = Rate 500 g/ha, Preemergence, scale 0 to 10 (0 no effect, 10 complete control)

COc1ccccc1Cn1c(=O)on(C(=O)N(c2ccccc2)C(C)C)c1=O [Compound 104]
Bedstraw plant response rating (bedstraw; [1]): 0 | Plant response rating, Bedstraw (bedstraw; [2]): 0 | Plant response rating, Bedstraw (bedstraw; [3]): 0 | Bedstraw plant response rating (bedstraw; [4]): 0 | Bedstraw plant response rating (bedstraw; [5]): 6 | Blackgrass plant response rating (blackgrass; [6]): 0 | Blackgrass plant response rating (blackgrass; [7]): 5 | Blackgrass plant response rating (blackgrass; [1]): 0 | Plant response rating, Blackgrass (blackgrass; [2]): 3 | Plant response rating, Blackgrass (blackgrass; [3]): 6 | Blackgrass plant response rating (blackgrass; [4]): 7 | Blackgrass plant response rating (blackgrass; [8]): 0 | Blackgrass plant response rating (blackgrass; [5]): 6 | B. signalgrass plant response rating (surinam grass; Postemergence, Rate 62 g/ha, scale 0 to 10, 0 is no effect, 10 is complete control): 0 | B. signalgrass plant response rating (surinam grass; [7]): 0 | B. signalgrass plant response rating (surinam grass; [1]): 0 | Plant response rating, B. signalgrass (surinam grass; [2]): 0 | Plant response rating, B. signalgrass (surinam grass; [3]): 5 | B. signalgrass plant response rating (surinam grass; [4]): 6 | B. signalgrass plant response rating (surinam grass; Rate 125 g/ha, Postemergence, scale 0 to 10, 0 no effect, 10 complete control): 0 | B. signalgrass plant response rating (surinam grass; Rate 500 g/ha, Postemergence, scale of 0 to 10 where 0 is no effect and 10 is complete control): 0 | Cocklebur plant response rating (cocklebur; [6]): 0 | Cocklebur plant response rating (cocklebur; [7]): 2 | Plant response rating, Cocklebur (cocklebur; [2]): 0 | Plant response rating, Cocklebur (cocklebur; [3]): 0 | Cocklebur plant response rating (cocklebur; [4]): 0 | Cocklebur plant response rating (cocklebur; [8]): 0 | Cocklebur plant response rating (cocklebur; [5]): 3 | Corn plant response rating (corn; [6]): 0 | Corn plant response rating (corn; [7]): 0 | Corn plant response rating (corn; [1]): 0 | Plant response rating, Corn (corn; [2]): 0 | Plant response rating, Corn (corn; [3]): 0 | Corn plant response rating (corn; [4]): 2 | Corn plant response rating (corn; [8]): 0 | Corn plant response rating (corn; [5]): 0 | Crabgrass plant response rating (crabgrass; [6]): 4 | Crabgrass plant response rating (crabgrass; [7]): 5 | Crabgrass plant response rating (crabgrass; [1]): 0 | Plant response rating, Crabgrass (crabgrass; [2]): 0 | Plant response rating, Crabgrass (crabgrass; [3]): 1 | Crabgrass plant response rating (crabgrass; [4]): 9 | Crabgrass plant response rating (crabgrass; [8]): 0 | Crabgrass plant response rating (crabgrass; [5]): 8 | Giant foxtail plant response rating (giant foxtail; [6]): 3 | Giant foxtail plant response rating (giant foxtail; [7]): 4 | Giant foxtail plant response rating (giant foxtail; [1]): 0 | Plant response rating, Giant foxtail (giant foxtail; [2]): 4 | Plant response rating, Giant foxtail (giant foxtail; [3]): 10 | Giant foxtail plant response rating (giant foxtail; [4]): 10 | Giant foxtail plant response rating (giant foxtail; [8]): 3 | Giant foxtail plant response rating (giant foxtail; [5]): 8 | Morningglory plant response rating (morningglory; [6]): 10 | Morningglory plant response rating (morningglory; [7]): 10 | Morningglory plant response rating (morningglory; [1]): 0 | Plant response rating, Morningglory (morningglory; [2]): 0 | Plant response rating, Morningglory (morningglory; [3]): 0 | Morningglory plant response rating (morningglory; [4]): 0 | Morningglory plant response rating (morningglory; [8]): 10 | Morningglory plant response rating (morningglory; [5]): 10 | Redroot pigweed plant response rating (pigweed; [6]): 3 | Redroot pigweed plant response rating (pigweed; [1]): 0 | Plant response rating, Redroot pigweed (pigweed; [2]): 0 | Plant response rating, Redroot pigweed (pigweed; [3]): 0 | Redroot pigweed plant response rating (pigweed; [4]): 4 | Redroot pigweed plant response rating (pigweed; [8]): 1 | Plant response rating, Redroot pigweed (pigweed; [9]): 3 | Redroot pigweed plant response rating (pigweed; [5]): 7 | Rape plant response rating (rape; [6]): 0 | Rape plant response rating (rape; [7]): 0 | Rape plant response rating (rape; [1]): 0 | Plant response rating, Rape (rape; [2]): 0 | Plant response rating, Rape (rape; [3]): 0 | Rape plant response rating (rape; [4]): 0 | Rape plant response rating (rape; [8]): 0 | Rape plant response rating (rape; [5]): 2 | Soybean plant response rating (soybean; [6]): 5 | Soybean plant response rating (soybean; [1]): 0 | Plant response rating, Soybean (soybean; [2]): 0 | Plant response rating, Soybean (soybean; [3]): 0 | Soybean plant response rating (soybean; [4]): 0 | Soybean plant response rating (soybean; [8]): 4 | Plant response rating, Soybean (soybean; [9]): 5 | Soybean plant response rating (soybean; [5]): 5 | Sugarbeets plant response rating (sugar beet; [6]): 1 | Sugarbeets plant response rating (sugar beet; [1]): 0 | Sugarbeets plant response rating (0 to 10 scale) (sugar beet; [10]): 0 | Plant response rating, Sugarbeets (sugar beet; [3]): 1 | Sugarbeets plant response rating (sugar beet; [4]): 6 | Sugarbeets plant response rating (sugar beet; [8]): 0 | Plant response rating, Sugarbeets (sugar beet; [9]): 1 | Sugarbeets plant response rating (sugar beet; [5]): 3 | Velvetleaf plant response rating (velvetleaf; [6]): 0 | Velvetleaf plant response rating (velvetleaf; [1]): 0 | Velvetleaf plant response rating (0 to 10 scale) (velvetleaf; [10]): 0 | Plant response rating, Velvetleaf (velvetleaf; [3]): 0 | Velvetleaf plant response rating (velvetleaf; [4]): 0 | Velvetleaf plant response rating (velvetleaf; [8]): 0 | Plant response rating, Velvetleaf (velvetleaf; [9]): 3 | Velvetleaf plant response rating (velvetleaf; [5]): 3 | Wheat plant response rating (wheat; [6]): 0 | Wheat plant response rating (wheat; [1]): 0 | Wheat plant response rating (0 to 10 scale) (wheat; [10]): 0 | Plant response rating, Wheat (wheat; [3]): 0 | Wheat plant response rating (wheat; [4]): 4 | Wheat plant response rating (wheat; [8]): 0 | Plant response rating, Wheat (wheat; [9]): 0 | Wheat plant response rating (wheat; [5]): 0 | Wild oats plant response rating (wild oat; [6]): 0 | Wild oats plant response rating (wild oat; [1]): 0 | Wild oats plant response rating (0 to 10 scale) (wild oat; [10]): 2 | Plant response rating, Wild oats (wild oat; [3]): 4 | Wild oats plant response rating (wild oat; [4]): 7 | Wild oats plant response rating (wild oat; [8]): 0 | Plant response rating, Wild oats (wild oat; [9]): 0 | Wild oats plant response rating (wild oat; [5]): 2 | Nutsedge plant response rating (purple nutsedge; [6]): 0 | Nutsedge plant response rating (purple nutsedge; [7]): 0 | Nutsedge plant response rating (purple nutsedge; [1]): 0 | Plant response rating, Nutsedge (purple nutsedge; [2]): 0 | Plant response rating, Nutsedge (purple nutsedge; [3]): 0 | Nutsedge plant response rating (purple nutsedge; [4]): 0 | Nutsedge plant response rating (purple nutsedge; [8]): 0 | Nutsedge plant response rating (purple nutsedge; [5]): 0

CC(C)N(C(=O)n1oc(=O)n(CBr)c1=O)c1ccccc1 [Compound 755]
Plant response rating, Bedstraw (bedstraw; [11]): 0 | Bedstraw plant response rating (bedstraw; [12]): 0 | Bedstraw plant response rating (bedstraw; [13]): 0 | Bedstraw plant response rating (bedstraw; [14]): 0 | Plant response rating, Blackgrass (blackgrass; [11]): 0 | Blackgrass plant response rating (blackgrass; [12]): 0 | Blackgrass plant response rating (blackgrass; [13]): 0 | Blackgrass plant response rating (blackgrass; [14]): 0 | B. signalgrass plant response rating (surinam grass; Preemergence, Rate 62 g/ha, scale of 0 to 10 where 0 is no effect and 10 is complete control): 0 | Plant response rating, B. signalgrass (surinam grass; [11]): 0 | B. signalgrass plant response rating (surinam grass; [12]): 0 | B. signalgrass plant response rating (surinam grass; [14]): 0 | Plant response rating, Cocklebur (cocklebur; [11]): 0 | Cocklebur plant response rating (cocklebur; [12]): 0 | Cocklebur plant response rating (cocklebur; [13]): 0 | Cocklebur plant response rating (cocklebur; [14]): 0 | Plant response rating, Corn (corn; [11]): 0 | Corn plant response rating (corn; [12]): 0 | Corn plant response rating (corn; [13]): 0 | Corn plant response rating (corn; [14]): 0 | Plant response rating, Crabgrass (crabgrass; [11]): 0 | Crabgrass plant response rating (crabgrass; [12]): 0 | Crabgrass plant response rating (crabgrass; [13]): 0 | Crabgrass plant response rating (crabgrass; [14]): 0 | Plant response rating, Giant foxtail (giant foxtail; [11]): 0 | Giant foxtail plant response rating (giant foxtail; [12]): 0 | Giant foxtail plant response rating (giant foxtail; [13]): 0 | Giant foxtail plant response rating (giant foxtail; [14]): 2 | Plant response rating, Morningglory (morningglory; [11]): 0 | Morningglory plant response rating (morningglory; [12]): 0 | Morningglory plant response rating (morningglory; [13]): 0 | Morningglory plant response rating (morningglory; [14]): 0 | Plant response rating, Redroot pigweed (pigweed; [11]): 0 | Redroot pigweed plant response rating (pigweed; [12]): 0 | Redroot pigweed plant response rating (pigweed; [13]): 0 | Redroot pigweed plant response rating (pigweed; [14]): 0 | Plant response rating, Rape (rape; [11]): 0 | Rape plant response rating (rape; [12]): 0 | Rape plant response rating (rape; [13]): 0 | Rape plant response rating (rape; [14]): 0 | Plant response rating, Soybean (soybean; [11]): 0 | Soybean plant response rating (soybean; [12]): 0 | Soybean plant response rating (soybean; [13]): 0 | Soybean plant response rating (soybean; [14]): 0 | Plant response rating, Sugarbeets (sugar beet; [11]): 0 | Sugarbeets plant response rating (sugar beet; [12]): 0 | Sugarbeets plant response rating (sugar beet; [13]): 0 | Sugarbeets plant response rating (sugar beet; [14]): 0 | Plant response rating, Velvetleaf (velvetleaf; [11]): 0 | Velvetleaf plant response rating (velvetleaf; [12]): 0 | Velvetleaf plant response rating (velvetleaf; [13]): 0 | Velvetleaf plant response rating (velvetleaf; [14]): 0 | Plant response rating, Wheat (wheat; [11]): 0 | Wheat plant response rating (wheat; [12]): 0 | Wheat plant response rating (wheat; [13]): 0 | Wheat plant response rating (wheat; [14]): 0 | Plant response rating, Wild oats (wild oat; [11]): 0 | Wild oats plant response rating (wild oat; [12]): 0 | Wild oats plant response rating (wild oat; [13]): 0 | Wild oats plant response rating (wild oat; [14]): 0 | Nutsedge plant response rating (purple nutsedge; [12]): 0 | Nutsedge plant response rating (purple nutsedge; [13]): 0 | Nutsedge plant response rating (purple nutsedge; [14]): 0
